Test system: 233499-124-R-J3-PDC spheroids with HUVEC/MSC, viability
Assay: Anticancer human tumor 233499-124-R-J3-PDC patient-derived colon adenocarcinoma cell line growth inhibition [PI3K]
Conditions: for IC50: curve of first compound; for viability, T/C: stronger effect = lower value
Outline: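 Complex 3D spheroids (cancer cells + endothelial HUVEC + mesenchymal stem cells); drug pairs of targeted agent x inavolisib/alpelisib/duvelisib/copanlisib; half-log series from ~Cmax, max 10 microM if Cmax unknown; endpoint viability.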

[1] = second compound 0.0316 µM, first compound 0.000316 µM
[2] = second compound 0.0316 µM, first compound 0.001 µM
[3] = second compound 0.0316 µM, first compound 0.00316 µM
[4] = second compound 0.0316 µM, first compound 0.01 µM
[5] = second compound 0.0316 µM, first compound 0.0316 µM
[6] = second compound 0.0316 µM, first compound 0.1 µM
[7] = second compound 0.1 µM, first compound 0.000316 µM
[8] = second compound 0.1 µM, first compound 0.001 µM
[9] = second compound 0.1 µM, first compound 0.00316 µM
[10] = second compound 0.1 µM, first compound 0.01 µM
[11] = second compound 0.1 µM, first compound 0.0316 µM
[12] = second compound 0.1 µM, first compound 0.1 µM
[13] = second compound 0.316 µM, first compound 0.000316 µM
[14] = second compound 0.316 µM, first compound 0.001 µM
[15] = second compound 0.316 µM, first compound 0.00316 µM
[16] = second compound 0.316 µM, first compound 0.01 µM
[17] = second compound 0.316 µM, first compound 0.0316 µM
[18] = second compound 0.316 µM, first compound 0.1 µM
[19] = second compound 1 µM, first compound 0.000316 µM
[20] = second compound 1 µM, first compound 0.001 µM
[21] = second compound 1 µM, first compound 0.00316 µM
[22] = second compound 1 µM, first compound 0.01 µM
[23] = second compound 1 µM, first compound 0.0316 µM
[24] = second compound 1 µM, first compound 0.1 µM
[25] = second compound 3.16 µM, first compound 0.000316 µM
[26] = second compound 3.16 µM, first compound 0.001 µM
[27] = second compound 3.16 µM, first compound 0.00316 µM
[28] = second compound 3.16 µM, first compound 0.01 µM
[29] = second compound 3.16 µM, first compound 0.0316 µM
[30] = second compound 3.16 µM, first compound 0.1 µM
[31] = second compound 10 µM, first compound 0.000316 µM
[32] = second compound 10 µM, first compound 0.001 µM
[33] = second compound 10 µM, first compound 0.00316 µM
[34] = second compound 10 µM, first compound 0.01 µM
[35] = second compound 10 µM, first compound 0.0316 µM
[36] = second compound 10 µM, first compound 0.1 µM
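Note: spheroids exposed to agents for seven days before readout.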
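Throughout, for viability, T/C: percent viability relative to DMSO vehicle control taken as 100%.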

Molecule `CC(=O)c1c(C)c2cnc(Nc3ccc(N4CCNCC4)cn3)nc2n(C2CCCC2)c1=O` + Cc1nc(NC(=O)N2CCCC2C(N)=O)sc1-c1ccnc(C(C)(C)C(F)(F)F)c1 has an IC50 (second compound 0.0316 µM) greater than 0.1 µM, an IC50 (second compound 0.1 µM) greater than 0.1 µM and an IC50 (second compound 0.316 µM) of 0.0659 µM. It also gave an IC50 (second compound 1 µM) of 0.0582 µM, an IC50 (second compound 3.16 µM) of 0.042 µM and an IC50 (second compound 10 µM) of less than 0.000316 µM. It also gave a viability, T/C [1] of 98.6%, a viability, T/C [2] of 93.2% and a viability, T/C [3] of 65.5%. It also gave a viability, T/C [4] of 79.9%, a viability, T/C [5] of 99.6% and a viability, T/C [6] of 79.1%. It also gave a viability, T/C [7] of 90.2%, a viability, T/C [8] of 90.2% and a viability, T/C [9] of 74.7%. It also gave a viability, T/C [10] of 98%, a viability, T/C [11] of 83% and a viability, T/C [12] of 54.5%. It also gave a viability, T/C [13] of 77.7%, a viability, T/C [14] of 89.7% and a viability, T/C [15] of 86.6%. The viability, T/C [16] was 75%, the viability, T/C [17] was 58.5% and the viability, T/C [18] was 45.3%. The viability, T/C [19] was 79.5%, the viability, T/C [20] was 67.9% and the viability, T/C [21] was 80.6%. It also gave a viability, T/C [22] of 70%, a viability, T/C [23] of 74.9% and a viability, T/C [24] of 28.3%. For the same molecule, the viability, T/C [25] was 53.3%, the viability, T/C [26] was 57.2% and the viability, T/C [27] was 76.4%. It also gave a viability, T/C [28] of 37.5%, a viability, T/C [29] of 61.8% and a viability, T/C [30] of 28.2%. The viability, T/C [31] was 27.8%, the viability, T/C [32] was 26.9% and the viability, T/C [33] was 27.5%. The viability, T/C [34] was 34.6%, the viability, T/C [35] was 36.9% and the viability, T/C [36] was 28%.
With `CC(C)n1nc(-c2ccc3oc(N)nc3c2)c2c(N)ncnc21` + Cc1nc(NC(=O)N2CCCC2C(N)=O)sc1-c1ccnc(C(C)(C)C(F)(F)F)c1 the IC50 (second compound 0.0316 µM) was greater than 0.1 µM, the IC50 (second compound 0.1 µM) was 0.0859 µM and the IC50 (second compound 0.316 µM) was greater than 0.1 µM. For the same molecule, the IC50 (second compound 1 µM) was 0.0375 µM, the IC50 (second compound 3.16 µM) was 0.00581 µM and the IC50 (second compound 10 µM) was less than 0.000316 µM. For the same molecule, the viability, T/C [1] was 103%, the viability, T/C [2] was 90.9% and the viability, T/C [3] was 103%. It also gave a viability, T/C [4] of 64.7%, a viability, T/C [5] of 92.6% and a viability, T/C [6] of 55.2%. The viability, T/C [7] was 99.4%, the viability, T/C [8] was 92.4% and the viability, T/C [9] was 54.8%. For the same molecule, the viability, T/C [10] was 86%, the viability, T/C [11] was 84% and the viability, T/C [12] was 45.1%. It also gave a viability, T/C [13] of 89.9%, a viability, T/C [14] of 81% and a viability, T/C [15] of 90.1%. For the same molecule, the viability, T/C [16] was 79.1%, the viability, T/C [17] was 67.7% and the viability, T/C [18] was 53.9%. The viability, T/C [19] was 68%, the viability, T/C [20] was 71.8% and the viability, T/C [21] was 82.1%. The viability, T/C [22] was 62.4%, the viability, T/C [23] was 55.3% and the viability, T/C [24] was 25.2%. For the same molecule, the viability, T/C [25] was 61.2%, the viability, T/C [26] was 50.6% and the viability, T/C [27] was 73%. The viability, T/C [28] was 39.7%, the viability, T/C [29] was 43.7% and the viability, T/C [30] was 30.7%. For the same molecule, the viability, T/C [31] was 43.7%, the viability, T/C [32] was 26.4% and the viability, T/C [33] was 29.7%. It also gave a viability, T/C [34] of 26.3%, a viability, T/C [35] of 24.5% and a viability, T/C [36] of 6.69%.
Molecule `CCCS(=O)(=O)Nc1ccc(F)c(C(=O)c2c[nH]c3ncc(-c4ccc(Cl)cc4)cc23)c1F` + Cc1nc(NC(=O)N2CCCC2C(N)=O)sc1-c1ccnc(C(C)(C)C(F)(F)F)c1 has an IC50 (second compound 0.0316 µM) of 5.29 µM, an IC50 (second compound 0.1 µM) of 4.82 µM and an IC50 (second compound 0.316 µM) of 4.83 µM. For the same molecule, the IC50 (second compound 1 µM) was 4.7 µM, the IC50 (second compound 3.16 µM) was 3.57 µM and the IC50 (second compound 10 µM) was less than 0.0316 µM. For the same molecule, the viability, T/C [5] was 119%, the viability, T/C [6] was 98.2% and the viability, T/C (second compound 0.0316 µM, first compound 0.316 µM) was 87.2%. The viability, T/C (second compound 0.0316 µM, first compound 1 µM) was 110%, the viability, T/C (second compound 0.0316 µM, first compound 3.16 µM) was 89% and the viability, T/C (second compound 0.0316 µM, first compound 10 µM) was 1.84%. For the same molecule, the viability, T/C [11] was 97%, the viability, T/C [12] was 109% and the viability, T/C (second compound 0.1 µM, first compound 0.316 µM) was 84.8%. The viability, T/C (second compound 0.1 µM, first compound 1 µM) was 92.5%, the viability, T/C (second compound 0.1 µM, first compound 3.16 µM) was 77.7% and the viability, T/C (second compound 0.1 µM, first compound 10 µM) was 4.22%. It also gave a viability, T/C [17] of 98.9%, a viability, T/C [18] of 81.7% and a viability, T/C (second compound 0.316 µM, first compound 0.316 µM) of 84.5%. For the same molecule, the viability, T/C (second compound 0.316 µM, first compound 1 µM) was 98.1%, the viability, T/C (second compound 0.316 µM, first compound 3.16 µM) was 78.2% and the viability, T/C (second compound 0.316 µM, first compound 10 µM) was 1.3%. It also gave a viability, T/C [23] of 82.8%, a viability, T/C [24] of 71.8% and a viability, T/C (second compound 1 µM, first compound 0.316 µM) of 86.3%. For the same molecule, the viability, T/C (second compound 1 µM, first compound 1 µM) was 67%, the viability, T/C (second compound 1 µM, first compound 3.16 µM) was 75.3% and the viability, T/C (second compound 1 µM, first compound 10 µM) was 1.86%. The viability, T/C [29] was 55.8%, the viability, T/C [30] was 59.1% and the viability, T/C (second compound 3.16 µM, first compound 0.316 µM) was 49.1%. It also gave a viability, T/C (second compound 3.16 µM, first compound 1 µM) of 53.9%, a viability, T/C (second compound 3.16 µM, first compound 3.16 µM) of 59.4% and a viability, T/C (second compound 3.16 µM, first compound 10 µM) of 4.28%. It also gave a viability, T/C [35] of 34.1%, a viability, T/C [36] of 35.4% and a viability, T/C (second compound 10 µM, first compound 0.316 µM) of 50.9%. It also gave a viability, T/C (second compound 10 µM, first compound 1 µM) of 29.8%, a viability, T/C (second compound 10 µM, first compound 3.16 µM) of 22.8% and a viability, T/C (second compound 10 µM, first compound 10 µM) of 0.89%.
